Results on 18 compounds are retold here after ChEMBL document CHEMBL1152089, “Alkyl ether derivatives of the FK-506 related, immunosuppressive macrolide L-683,742 (C31-O-desmethyl ascomycin)” (Bioorg Med Chem Lett, 1994).

In general, EC50 refers to the concentration giving half of the maximal effect. Lower therefore signals a more potent agent. Usually IC50 stands for the concentration at which inhibition is half-maximal. Read a low IC50 as greater potency in that assay.

Experiment [1] has as its target T1, Peptidyl-prolyl cis-trans isomerase FKBP1A (Homo sapiens, UniProt P62942). Nature of the experiment: Ability to bind the major cystolic receptor FK506 binding protein 12 by using competitive binding assay.
The species entered for a further experiment is Mus musculus. Description: In vitro immunosuppressive activity against proliferation of antigen stimulated murine splenic T cells. Type of experiment: functional, organism-based. The note with it: T-cell.
The target in experiment [2] is T1, Peptidyl-prolyl cis-trans isomerase FKBP1A. Description: Ability to bind the major cystolic receptor FKBP12 by using competitive binding assay.

T1 sequence (P62942 whole entry): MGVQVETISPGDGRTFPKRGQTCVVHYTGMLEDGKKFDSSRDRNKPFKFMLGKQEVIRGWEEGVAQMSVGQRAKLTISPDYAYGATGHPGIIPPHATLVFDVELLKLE

As for `C=CCO[C@@H]1C[C@H](/C=C(\C)[C@H]2OC(=O)[C@@H]3CCCCN3C(=O)C(=O)C3(O)O[C@H]([C@@H](OC)C[C@@H](C)C/C(C)=C/[C@@H](CC)C(=O)C[C@H](O)[C@H]2C)[C@@H](OC)C[C@@H]3C)CC[C@H]1O`, in experiment [1], the EC50 is 2.7 nM. The compound further gave an IC50 in the experiment listed under Mus musculus of 0.68 nM.
For `C=CCO[C@@H]1CC[C@@H](/C=C(\C)[C@H]2OC(=O)[C@@H]3CCCCN3C(=O)C(=O)C3(O)O[C@H]([C@@H](OC)C[C@@H](C)C/C(C)=C/[C@@H](CC)C(=O)C[C@H](O)[C@H]2C)[C@@H](OC)C[C@@H]3C)C[C@H]1O`, in that order: 6.1 nM and 5.5 nM.
In the case of `C=C(C)CO[C@@H]1C[C@H](/C=C(\C)[C@H]2OC(=O)[C@@H]3CCCCN3C(=O)C(=O)C3(O)O[C@H]([C@@H](OC)C[C@@H](C)C/C(C)=C/[C@@H](CC)C(=O)C[C@H](O)[C@H]2C)[C@@H](OC)C[C@@H]3C)CC[C@H]1O`, inhibition in the experiment filed under Mus musculus was half-maximal at 1.9 nM (IC50).
In experiment [1], `C=CC(C)O[C@@H]1CC[C@@H](/C=C(\C)[C@H]2OC(=O)[C@@H]3CCCCN3C(=O)C(=O)C3(O)O[C@H]([C@@H](OC)C[C@@H](C)C/C(C)=C/[C@@H](CC)C(=O)C[C@H](O)[C@H]2C)[C@@H](OC)C[C@@H]3C)C[C@H]1O` (some centres not stated) returned an EC50 of 14.9 nM. This compound also had an IC50 in the experiment listed under Mus musculus of 6.6 nM.
For `CC[C@@H]1/C=C(\C)C[C@H](C)C[C@H](OC)[C@H]2OC(O)(C(=O)C(=O)N3CCCC[C@H]3C(=O)O[C@H](/C(C)=C/[C@@H]3CC[C@@H](OCc4ccco4)[C@H](O)C3)[C@H](C)[C@@H](O)CC1=O)[C@@H](C)C[C@@H]2OC`, in that order: 15.6 nM and 7.8 nM.
In the same order, the values of `CC[C@@H]1/C=C(\C)C[C@H](C)C[C@H](OC)[C@H]2O[C@@](O)(C(=O)C(=O)N3CCCC[C@H]3C(=O)O[C@H](/C(C)=C/[C@@H]3CC[C@@H](O)[C@H](O)C3)[C@H](C)[C@@H](O)CC1=O)[C@@H](C)C[C@@H]2OC` are 5 nM and 1.8 nM.
For `C=CC(C)O[C@@H]1C[C@H](/C=C(\C)[C@H]2OC(=O)[C@@H]3CCCCN3C(=O)C(=O)C3(O)O[C@H]([C@@H](OC)C[C@@H](C)C/C(C)=C/[C@@H](CC)C(=O)C[C@H](O)[C@H]2C)[C@@H](OC)C[C@@H]3C)CC[C@H]1O` (some centres not stated), in that order: 6.6 nM and 0.73 nM.
In experiment [1], `CC[C@@H]1/C=C(\C)C[C@H](C)C[C@H](OC)[C@H]2OC(O)(C(=O)C(=O)N3CCCC[C@H]3C(=O)O[C@H](/C(C)=C/[C@@H]3CC[C@@H](OCc4ccsc4)[C@H](O)C3)[C@H](C)[C@@H](O)CC1=O)[C@@H](C)C[C@@H]2OC` had a concentration for a half-maximal effect (EC50) of 12 nM. The midpoint of inhibition in the experiment filed under Mus musculus, the IC50, lay at 4.4 nM.
For `C/C=C/CO[C@@H]1C[C@H](/C=C(\C)[C@H]2OC(=O)[C@@H]3CCCCN3C(=O)C(=O)C3(O)O[C@H]([C@@H](OC)C[C@@H](C)C/C(C)=C/[C@@H](CC)C(=O)C[C@H](O)[C@H]2C)[C@@H](OC)C[C@@H]3C)CC[C@H]1O`, in that order: 7 nM and 2.1 nM.
`CC[C@@H]1/C=C(\C)C[C@H](C)C[C@H](OC)[C@H]2OC(O)(C(=O)C(=O)N3CCCC[C@H]3C(=O)O[C@H](/C(C)=C/[C@@H]3CC[C@@H](O)[C@H](OCc4ccco4)C3)[C@H](C)[C@@H](O)CC1=O)[C@@H](C)C[C@@H]2OC` gave an EC50 in experiment [1] of 4.6 nM. In the experiment listed under Mus musculus, this compound displayed an IC50 of 3.6 nM.
In the same order, the values of `C/C=C/CO[C@@H]1CC[C@@H](/C=C(\C)[C@H]2OC(=O)[C@@H]3CCCCN3C(=O)C(=O)C3(O)O[C@H]([C@@H](OC)C[C@@H](C)C/C(C)=C/[C@@H](CC)C(=O)C[C@H](O)[C@H]2C)[C@@H](OC)C[C@@H]3C)C[C@H]1O` are 9.2 nM and 8.6 nM.
In turn, `CC[C@@H]1/C=C(\C)C[C@H](C)C[C@H](OC)[C@H]2OC(O)(C(=O)C(=O)N3CCCC[C@H]3C(=O)O[C@H](/C(C)=C/[C@@H]3CC[C@@H](O)[C@H](OC(C)C)C3)[C@H](C)[C@@H](O)CC1=O)[C@@H](C)C[C@@H]2OC` gave a half-maximal effective concentration (EC50) in experiment [2] of 3.4 nM. In addition, the IC50 in the experiment listed under Mus musculus worked out at 0.59 nM.
In the experiment listed under Mus musculus, `C=C(C)CO[C@@H]1CC[C@@H](/C=C(\C)[C@H]2OC(=O)[C@@H]3CCCCN3C(=O)C(=O)C3(O)O[C@H]([C@@H](OC)C[C@@H](C)C/C(C)=C/[C@@H](CC)C(=O)C[C@H](O)[C@H]2C)[C@@H](OC)C[C@@H]3C)C[C@H]1O` showed an IC50 of 3.4 nM.
As for `CC[C@@H]1/C=C(\C)C[C@H](C)C[C@H](OC)[C@H]2OC(O)(C(=O)C(=O)N3CCCC[C@H]3C(=O)O[C@H](/C(C)=C/[C@@H]3CC[C@@H](O)[C@H](OCc4cccs4)C3)[C@H](C)[C@@H](O)CC1=O)[C@@H](C)C[C@@H]2OC`, a half-maximal response in experiment [1] (EC50) required 10.3 nM. In the experiment listed under Mus musculus, this compound registered a 50% inhibitory concentration (IC50) of 1.1 nM.
In the experiment filed under Mus musculus, `CC[C@@H]1/C=C(\C)C[C@H](C)C[C@H](OC)[C@H]2OC(O)(C(=O)C(=O)N3CCCC[C@H]3C(=O)O[C@H](/C(C)=C/[C@@H]3CC[C@@H](OC(C)C)[C@H](O)C3)[C@H](C)[C@@H](O)CC1=O)[C@@H](C)C[C@@H]2OC` displayed a concentration for half-maximal inhibition (IC50) of 9.1 nM.
In turn, `CC[C@@H]1/C=C(\C)C[C@H](C)C[C@H](OC)[C@H]2OC(O)(C(=O)C(=O)N3CCCC[C@H]3C(=O)O[C@H](/C(C)=C/[C@@H]3CC[C@@H](O)[C@H](OCc4ccsc4)C3)[C@H](C)[C@@H](O)CC1=O)[C@@H](C)C[C@@H]2OC` yielded an EC50 in experiment [1] of 5.7 nM. In the experiment listed under Mus musculus, this compound registered an IC50 of 3.2 nM.
In experiment [1], `CC[C@@H]1/C=C(\C)C[C@H](C)C[C@H](OC)[C@H]2OC(O)(C(=O)C(=O)N3CCCC[C@H]3C(=O)O[C@H](/C(C)=C/[C@@H]3CC[C@@H](OCc4cccs4)[C@H](O)C3)[C@H](C)[C@@H](O)CC1=O)[C@@H](C)C[C@@H]2OC` returned a concentration giving a half-maximal response (EC50) of 11.8 nM. For the same compound, the IC50 in the experiment filed under Mus musculus came to 2.8 nM.
In the experiment filed under Mus musculus, `C=CC[C@@H]1/C=C(\C)C[C@H](C)C[C@H](OC)[C@H]2O[C@@](O)(C(=O)C(=O)N3CCCC[C@H]3C(=O)O[C@H](/C(C)=C/[C@@H]3CC[C@@H](O)[C@H](OC)C3)[C@H](C)[C@@H](O)CC1=O)C(C)C[C@@H]2OC` (single isomer, unassigned) [TACROLIMUS ANHYDROUS] had an IC50 of 0.29 nM.
